Patent US20010041177A1, “Methods for detecting inflammation and inflammatory conditions” (priority 2000, published 2001)

Tests used:
[1] = test system: CD163 expression on monocytes; experiment: Monocytes cultured with LPS, DEX or IL-10, surface CD163 by immunofluorescence; assay type: cell-based, human; conditions: monocytes cultured with the agent alone
Protocol: In addition to testing the effects of cytokines in combination with glucocorticoids on levels of CD163, studies were performed to examine the effects of glucocorticoids in combination with lipopolysaccharide (LPS). […] However, when monocytes were cultured for 48 hours with DEX combined with LPS, their was a synergistic increase in CD163 expression, where the effect of DEX alone was increased by more than 2-fold when LPS treatment was added.

[2] = test system: monocyte CD163 expression; experiment: CD163 expression on monocytes of PBMCs cultured with mediators, staining and flow cytometric analysis; assay type: cell-based, human; conditions: for increase of monocyte CD163 expression: PBMCs treated 24 hours, DEX 200 nM; for effect of cytokine alone on monocyte CD163 expression: at the concentrations tested
Protocol: To assess whether different cytokines could influence CD163 expression, freshly isolated PBMCs were cultured for 24 hours in the presence of various cytokines, 200 nM DEX (as a positive control for CD163 upregulation), or control media. The cells were then subjected to staining and flow cytometric analysis.
For cytokine treatment studies, isolated PBMCs were suspended in hepes buffered RPMI 1640/0.05% gentamicin/10% FBS at a concentration of 2.0×10^6 to 2.5×10^6 cells/ml and cultured in 96 well plates at 37° C. and 5% CO2 in the presence of various mediators (Table 1). Mononuclear cells were stained for flow cytometric analysis after 24 hours in culture unless otherwise indicated. This enhanced cell recovery because monocytes, which initially adhere to plastic vessels, transiently detach from culture wells at 24-48 hours.
All staining procedures were performed at 4 C. Briefly, cultured PBMCs were incubated with normal human IgG (6 mg/ml) to block Fc receptor-specific binding of mAbs and 30 μg/ml of the isotype control mAb P3 or a saturating amount of mAb MAC2-48 (20 μg/ml) for one hour. Cells were then washed and stained for one hour with 17.5 μg/ml FITC labeled goat F(ab=)2 anti-mouse Ig. The cells were again washed and fixed with 1% methanol free formalin.
Cell fluorescence of monocytes gated using forward and side scatter was analyzed using a Becton Dickenson FACScan (Franklin Lakes, N.J.). Mean fluorescence intensity (MFI) was calculated by subtracting the MFI of the P3 stained mononuclear cells from the MFI of the corresponding Mac2-48 stained cells.

monocyte surface CD163 [3] = experiment: Shedding of monocyte surface CD163 in vitro; assay type: cell-based, human; conditions: cells pretreated with glucocorticoids plus LPS
Protocol: Therefore, like PMA, LPS is capable of inducing CD163 shedding. LPS-induced shedding occurred even with monocytes that had been cultured for 48 hours in DEX and thus had 5- to 10-fold higher levels of surface CD163 than freshly isolated monocytes. […] This LPS-conferred resistance to subsequent LPS-induced shedding of CD163 is similar to reported endotoxin pre-conditioning for resistance to subsequent inflammatory insults.

monocyte surface CD163 [4] = conditions: Droste et al. 1999; blocked by protease inhibitors; cited from earlier work
[5] = test system: CD163 expression on monocytes; conditions: purified monocytes, 2 days; cited from earlier work
CD163 mRNA = experiment: Northern blots of CD163 mRNA in treated monocytes; assay type: cell-based, human; conditions: monocytes treated 8 hours; 5 ng/ml IL-10 or 10^-8 M FP
Protocol: Monocytes were treated for 8 hours with either IL-10, the glucocorticoid FP or control media.
Human monocytes were isolated and cultured overnight as described for western blots. Monocytes were then stimulated for 8 hours with 5 ng/ml IL-10 (R&D Systems) or 10^-8 M FP. Total RNA was isolated from IL-10 stimulated, glucocorticoid stimulated and control monocytes as described by Dreier, et al. (Dreier, J. et al. 1998. DNA Cell Biol. 17:321-323). 10 μg of total RNA per sample were electrophoretically separated in a 1% agarose, 2% formaldehyde gel and transferred onto a Hybond N^+nylon membrane (Amersham Inc., Arlington Heights, Ill.) in 20x saline-sodium citrate (SSC) using an LKB 2016 VacuGene blotting apparatus. Antisense RNA probes for northern hybridization were generated from linearized DNA templates using a digoxigenin RNA labeling kit (Boehringer Mannheim, Mannheim, Germany) and T7 RNA polymerase (New England Biolabs, Schwalbach, Germany) as described by the manufacturer. Prehybridization was performed at 68° C. for 1 hr in a high SDS hybridization buffer (7% SDS, 5x SSC, 50% formamide, 50 mM sodium phosphate, 2% casein, 0.1% N-lauroylsarcosine, pH 7.0). Subsequently the heat-denatured probes (10 minutes at 95° C.) were added to the prehybridization solution (100 ng/ml) and hybridized at 68° C. for 16 hours. […]

For `C[C@@H]1C[C@H]2[C@@H]3CCC4=CC(=O)C=C[C@]4(C)[C@@]3(F)[C@@H](O)C[C@]2(C)[C@@]1(O)C(=O)CO` [DEX, reference compound], the “surface CD163 on monocytes, single agent” value [1] was “increased expression of CD163” and the “increase of monocyte CD163 expression” value ([2]; p<0.01) was about 7 fold.

In the case of IL-13: interleukin-13, a cytokine, the “effect of cytokine alone on monocyte CD163 expression” value ([2]; PBMCs 24 hours) is reported as “did not upregulate CD163 expression”.

In the case of `CCCCCCCCCCCCCC(=O)O[C@@H]1[C@@H](C)[C@@]2(O)[C@@H](C=C(CO)C[C@]3(O)C(=O)C(C)=C[C@@H]23)[C@@H]2C(C)(C)[C@]12OC(C)=O` [PMA], the “shedding of surface CD163 on subsequent treatment” value (monocyte surface CD163 [3]) is listed as “remained sensitive to PMA-induced shedding” and the “shedding of surface CD163 from monocytes in culture” value (monocyte surface CD163 [4]) is listed as “induce rapid shedding of surface CD163”.

For “GM-CSF: granulocyte-macrophage colony stimulating factor”, the “effect of cytokine plus DEX on CD163 expression over DEX treatment alone” value ([2]; PBMCs 24 hours) is given as “does not enhance CD163 expression over DEX treatment alone”, the “effect of cytokine alone on CD163 expression” value [5] is given as “neither GM-CSF nor IL-4 alone had any effect” and the “effect of cytokine plus DEX on CD163 expression” value [5] is given as “synergistic effect”.

For `CCC(=O)O[C@]1(C(=O)SCF)[C@H](C)C[C@H]2[C@@H]3C[C@H](F)C4=CC(=O)C=C[C@]4(C)[C@@]3(F)[C@@H](O)C[C@@]21C` [FP, reference compound], the “CD163 mRNA levels” value (CD163 mRNA) was “increased from undetectable to strong bands”.

B1: IL-4: interleukin-4, a cytokine (protein, UniProt P05112 25-153, looked up)
Interleukin-4: HKCDITLQEIIKTLNSLTEQKTLCTELTVTDIFAASKNTTEKETFCRAATVLRQFYSHHEKDTRCLGATAQQFHRHKQLIRFLKRLDRNLWGLAGLNSCPVKEANQSTLENFLERLKTIMREKYSKCSS
For B1, the “effect of cytokine plus DEX on CD163 expression over DEX treatment alone” value ([2]; PBMCs 24 hours) is given as “does not enhance CD163 expression over DEX treatment alone”, the “effect of cytokine alone on monocyte CD163 expression” value ([2]; PBMCs 24 hours) is given as “did not upregulate CD163 expression” and the “effect of cytokine alone on CD163 expression” value [5] is given as “neither GM-CSF nor IL-4 alone had any effect”. For the same molecule, the “effect of cytokine plus DEX on CD163 expression” value [5] was “synergistic effect”.

B2: IL-10: Interleukin-10 (originally known as cytokine synthesis inhibitory factor), a cytokine (protein, UniProt P22301 19-178, looked up)
Interleukin-10: SPGQGTQSENSCTHFPGNLPNMLRDLRDAFSRVKTFFQMKDQLDNLLLKESLLEDFKGYLGCQALSEMIQFYLEEVMPQAENQDPDIKAHVNSLGENLKTLRLRLRRCHRFLPCENKSKAVEQVKNAFNKLQEKGIYKAMSEFDIFINYIEAYMTMKIRN
In the case of B2, the “surface CD163 on monocytes, single agent” value [1] is reported as “increased expression of CD163”, the “increase of CD163 expression compared to control” value ([2]; PBMCs 24 hours, 10 and 100 ng/ml IL-10, p<0.01) is reported as “approximately 3.5 fold” and the “increase of monocyte CD163 expression” value ([2]; p<0.01) is reported as “approximately 4 fold”. The “CD163 mRNA levels” value (CD163 mRNA) was “increased from undetectable to strong bands”.
